How the values were obtained:
Assay type in all cases: functional, cell-based
[1] = target: T1, Multidrug resistance-associated protein 1 (Homo sapiens, UniProt P33527); assay: TP_TRANSPORTER: inhibition of VP-16 transport in HL60/ADR cells (overexpression of MRP1)
[2] = target: T1, Multidrug resistance-associated protein 1; assay: TP_TRANSPORTER: inhibition of VP-16 transport in HL60/MRP cells
[3] = target: T1, Multidrug resistance-associated protein 1; assay: TP_TRANSPORTER: inhibition of VCR transport in HL60/MRP cells
[4] = target: T1, Multidrug resistance-associated protein 1; assay: TP_TRANSPORTER: inhibition of DNR transport in HL60/MRP cells
[5] = target: T1, Multidrug resistance-associated protein 1; assay: TP_TRANSPORTER: inhibition of VCR transport in HL60/ADR cells (overexpression of MRP1)
[6] = target: T1, Multidrug resistance-associated protein 1; assay: TP_TRANSPORTER: inhibition of DNR transport in HL60/ADR cells (overexpression of MRP1)

T1 sequence (P33527 whole entry): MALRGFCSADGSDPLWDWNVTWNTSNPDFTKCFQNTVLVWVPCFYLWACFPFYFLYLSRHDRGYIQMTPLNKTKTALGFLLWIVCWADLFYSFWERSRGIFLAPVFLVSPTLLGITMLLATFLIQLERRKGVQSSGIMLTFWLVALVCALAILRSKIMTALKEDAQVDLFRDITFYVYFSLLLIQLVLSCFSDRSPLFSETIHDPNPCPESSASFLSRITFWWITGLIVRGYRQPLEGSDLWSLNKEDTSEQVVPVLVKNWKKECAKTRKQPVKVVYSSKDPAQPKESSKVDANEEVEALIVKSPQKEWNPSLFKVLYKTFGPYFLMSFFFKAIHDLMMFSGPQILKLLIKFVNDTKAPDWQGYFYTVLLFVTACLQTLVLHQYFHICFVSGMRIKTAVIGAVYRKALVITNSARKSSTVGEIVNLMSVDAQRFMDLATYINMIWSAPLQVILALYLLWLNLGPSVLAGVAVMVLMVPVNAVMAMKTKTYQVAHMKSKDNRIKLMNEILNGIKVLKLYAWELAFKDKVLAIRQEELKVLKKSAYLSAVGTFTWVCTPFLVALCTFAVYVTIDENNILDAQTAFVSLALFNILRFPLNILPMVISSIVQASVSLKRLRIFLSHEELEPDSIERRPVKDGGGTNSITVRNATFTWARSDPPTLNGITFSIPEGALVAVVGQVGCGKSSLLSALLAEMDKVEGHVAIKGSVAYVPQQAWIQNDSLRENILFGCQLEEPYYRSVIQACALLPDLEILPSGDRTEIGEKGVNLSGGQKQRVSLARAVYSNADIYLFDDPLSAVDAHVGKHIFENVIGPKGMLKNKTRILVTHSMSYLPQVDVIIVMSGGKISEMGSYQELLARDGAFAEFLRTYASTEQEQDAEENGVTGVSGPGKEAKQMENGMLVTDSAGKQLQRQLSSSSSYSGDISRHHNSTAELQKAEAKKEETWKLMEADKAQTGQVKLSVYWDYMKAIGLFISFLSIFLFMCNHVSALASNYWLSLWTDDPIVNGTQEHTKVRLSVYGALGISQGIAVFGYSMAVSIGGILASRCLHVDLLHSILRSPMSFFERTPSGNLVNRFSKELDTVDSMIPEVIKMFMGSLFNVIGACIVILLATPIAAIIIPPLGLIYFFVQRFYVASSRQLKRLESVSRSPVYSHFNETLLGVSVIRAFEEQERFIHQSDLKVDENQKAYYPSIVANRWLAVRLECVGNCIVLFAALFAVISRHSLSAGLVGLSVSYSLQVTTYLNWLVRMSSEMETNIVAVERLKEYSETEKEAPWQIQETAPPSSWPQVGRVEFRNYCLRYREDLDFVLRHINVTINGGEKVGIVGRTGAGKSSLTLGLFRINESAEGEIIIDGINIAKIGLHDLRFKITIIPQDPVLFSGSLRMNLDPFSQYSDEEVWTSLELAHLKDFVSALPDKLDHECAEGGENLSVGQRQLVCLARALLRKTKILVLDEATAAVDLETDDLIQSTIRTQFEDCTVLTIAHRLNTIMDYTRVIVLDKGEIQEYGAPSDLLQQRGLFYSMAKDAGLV

COc1cc2c(c(OC)c1OC)-c1c(cc3c(c1OC)OCO3)C[C@H](C)[C@@](C)(O)C2 [GOMISIN A]
IC50 [1]: 7.77 µM | IC50 [2]: 2760 nM | IC50 [3]: 9.36 nM | IC50 [4]: 182 nM | IC50 [5]: 0.96 nM | IC50 [6]: 122 nM

COc1cc2c(c(OC)c1OC)-c1c(cc(OC)c(OC)c1OC)C[C@H](C)[C@H](C)C2 [SCHISANDRIN A]
IC50 [1]: 4.89 µM | IC50 [2]: 2340 nM | IC50 [3]: 6.96 nM | IC50 [4]: 154 nM | IC50 [5]: 9.84 nM | IC50 [6]: 142 nM

COc1cc2c(c(OC)c1OC)-c1c(cc3c(c1OC)OCO3)CC(C)C(C)C2 (centres undefined) [SCHISANDRIN B]
IC50 [1]: 4.19 µM | IC50 [2]: 2250 nM | IC50 [3]: 9.49 nM | IC50 [4]: 205 nM | IC50 [5]: 1.25 nM | IC50 [6]: 140 nM

COc1cc2c(c(OC)c1OC)-c1c(cc(OC)c(OC)c1OC)C[C@](C)(O)[C@@H](C)C2 [SCHIZANDRIN]
IC50 [1]: 7.25 µM | IC50 [2]: 3240 nM | IC50 [3]: 8.09 nM | IC50 [4]: 217 nM | IC50 [5]: 1.16 nM | IC50 [6]: 125 nM
